Data: patent publication US9169254B2, “Spiroimidazolone derivative” (Chugai Seiyaku Kabushiki Kaisha, priority 2009, dated 2015)

Molecular target: T1, human PTH1 receptor (Homo sapiens, UniProt Q03431)
T1 sequence (Q03431 27-593): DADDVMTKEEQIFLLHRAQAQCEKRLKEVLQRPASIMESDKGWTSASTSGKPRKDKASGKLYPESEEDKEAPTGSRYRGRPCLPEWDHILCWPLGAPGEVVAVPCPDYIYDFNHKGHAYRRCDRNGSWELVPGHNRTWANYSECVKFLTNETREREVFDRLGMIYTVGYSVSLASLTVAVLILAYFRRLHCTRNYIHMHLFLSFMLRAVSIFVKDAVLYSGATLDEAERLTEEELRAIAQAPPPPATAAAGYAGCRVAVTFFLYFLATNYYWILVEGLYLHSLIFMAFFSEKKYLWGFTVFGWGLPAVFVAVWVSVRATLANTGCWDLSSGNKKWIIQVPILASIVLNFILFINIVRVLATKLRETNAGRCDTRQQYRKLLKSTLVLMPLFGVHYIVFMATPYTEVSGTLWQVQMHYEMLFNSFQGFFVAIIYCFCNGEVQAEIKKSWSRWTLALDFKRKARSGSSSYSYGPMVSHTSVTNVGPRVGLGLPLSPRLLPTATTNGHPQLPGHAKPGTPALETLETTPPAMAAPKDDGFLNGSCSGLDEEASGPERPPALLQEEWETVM
Test: In vitro cAMP signal activity in HKRK-B7 cells (LLC-PK1 cells overexpressing the human PTH1 receptor)
Assay type: cell-based
Settings: HKRK-B7 cells; compound at 1×10^−3 M; cAMP produced as percentage of that produced by hPTH(1-34) at 100 nM

## Cc1cccc(C2=NC3(CCN(S(=O)(=O)CCc4ccc(C(=O)N(C)C)cc4C)CC3)C(=O)N2)c1 [Compound 84, 3,N,N-trimethyl-4-[2-(4-oxo-2-m-tolyl-1,3,8-triaza-spiro[4.5]dec-1-ene-8-sulfonyl)-ethyl]-benzamide]
  cAMP production activity (%): 51%

## Cc1cc(OC2CCN(C(=O)OC(C)(C)C)CC2)ccc1/C=C/S(=O)(=O)N1CCC2(CC1)N=C(c1cccc(OC(F)(F)F)c1)NC2=O [Compound 602, 4-(3-methyl-4-{(E)-2-[4-oxo-2-(3-trifluoromethoxy-phenyl)-1,3,8-triaza-spiro[4.5]dec-1-ene-8-sulfonyl]-vinyl}-phenoxy)-piperidine-1-carboxylic acid tert-butyl ester]
  cAMP production activity (%): 3.0%

## CC(=O)Nc1ccc(CCS(=O)(=O)N2CCC3(CC2)N=C(C2CCC(CC(C)F)CC2)NC3=O)c(C)c1 (stereo not shown) [Compound 1077, N-[4-(2-{2-[4-(2-fluoro-propyl)-cyclohexyl]-4-oxo-1,3,8-triaza-spiro[4.5]dec-1-ene-8-sulfonyl}-ethyl)-3-methyl-phenyl]-acetamide]
  cAMP production activity (%): 74%

## COc1cccc(C(=O)N2CCCC(C3=NC4(CCN(S(=O)(=O)c5cccc(Cl)c5)CC4)C(=O)N3)C2)c1 (stereo not shown) [Compound 426, 8-(3-chloro-benzenesulfonyl)-2-[1-(3-methoxy-benzoyl)-piperidin-3-yl]-1,3,8-triaza-spiro[4.5]dec-1-en-4-one]
  cAMP production activity (%): 16%

## Cc1ccccc1CCS(=O)(=O)N1CCC2(CC1)N=C(C1CCCCC1)NC2=S [Compound 469, 2-Cyclohexyl-8-(2-o-tolyl-ethanesulfonyl)-1,3,8-triaza-spiro[4.5]dec-1-ene-4-thione]
  cAMP production activity (%): 47%

## [2H]C([2H])([2H])C([2H])(Oc1ccc(C2=NC3(CCN(S(=O)(=O)/C=C/c4c(C)cc(C(=O)N5CCC(C)(O)CC5)cc4C)CC3)C(=O)N2)cc1C(F)(F)F)C([2H])([2H])[2H] [Compound 1222, 8-{(E)-2-[4-(4-hydroxy-4-methyl-piperidine-1-carbonyl)-2,6-dimethyl-phenyl]-ethenesulfonyl}-2-(4-[1,2,2,2,2,2,2-^2H7]isopropoxy-3-trifluoromethyl-phenyl)-1,3,8-triaza-spiro[4.5]dec-1-en-4-one]
  cAMP production activity (%): 77%

## Cc1cc(N(C)C(N)=O)cc(C)c1CC(F)(F)S(=O)(=O)N1CCC2(CC1)N=C(c1cccc(OC(F)(F)F)c1)NC2=O [Compound 1085, 1-(4-{2,2-Difluoro-2-[4-oxo-2-(3-trifluoromethoxy-phenyl)-1,3,8-triaza-spiro[4.5]dec-1-ene-8-sulfonyl]-ethyl}-3,5-dimethyl-phenyl)-1-methyl-urea]
  cAMP production activity (%): 100%

## Cc1cc(C(=O)N2CCC(C)(O)CC2)cc(C)c1CCS(=O)(=O)N1CCC2(CC1)N=C(C1CCC(CCC(F)(F)F)CC1)NC2=O (stereo not shown) [Compound 1380, 8-{2-[4-(4-hydroxy-4-methyl-piperidine-1-carbonyl)-2,6-dimethyl-phenyl]-ethanesulfonyl}-2-[4-(3,3,3-trifluoro-propyl)-cyclohexyl]-1,3,8-triaza-spiro[4.5]dec-1-en-4-one]
  cAMP production activity (%): 109%

## Cc1cc(C(=O)N2CCC(C)(O)CC2)cc(C)c1/C=C/S(=O)(=O)N1CCC2(CC1)N=C(c1ccc(OC(F)(F)F)cc1)NC2=O [Compound 1198, 8-{(E)-2-[4-(4-hydroxy-4-methyl-piperidine-1-carbonyl)-2,6-dimethyl-phenyl]-ethenesulfonyl}-2-(4-trifluoromethoxy-phenyl)-1,3,8-triaza-spiro[4.5]dec-1-en-4-one]
  cAMP production activity (%): 88%

## COc1cc(N(C)C(N)=O)cc(C)c1CCS(=O)(=O)N1CCC2(CC1)N=C(C1CCC(C)CC1)NC2=O (stereo not shown) [Compound 682, 1-(3-Methoxy-5-methyl-4-{2-[2-(4-methyl-cyclohexyl)-4-oxo-1,3,8-triaza-spiro[4.5]dec-1-ene-8-sulfonyl]-ethyl}-phenyl)-1-methyl-urea]
  cAMP production activity (%): 81%

## Cc1cc2ccc1CCS(=O)(=O)N1CCC3(CC1)N=C(NC3=O)c1cc(cc(C(F)(F)F)c1)OCCCCCOCCN(C)C2=O [Compound 1421]
  cAMP production activity (%): 49%

## Cc1cc(C(=O)N2CCOC2=O)cc(C)c1/C=C/S(=O)(=O)N1CCC2(CC1)N=C(C1CCCCC1)NC2=O [Compound 1007, 2-Cyclohexyl-8-{(E)-2-[2,6-dimethyl-4-(2-oxo-oxazolidine-3-carbonyl)-phenyl]-ethenesulfonyl}-1,3,8-triaza-spiro[4.5]dec-1-en-4-one]
  cAMP production activity (%): 20%

## Cc1cc(N2C(C)(C)C(=O)NS2(=O)=O)cc(C)c1CCS(=O)(=O)N1CCC2(CC1)N=C(C1CCC(C)CC1)NC2=O (stereo not shown) [Compound 656, 8-{2-[4-(3,3-dimethyl-1,1,4-trioxo-1λ^6-[1,2,5]thiadiazolidin-2-yl)-2,6-dimethyl-phenyl]-ethanesulfonyl}-2-(4-methyl-cyclohexyl)-1,3,8-triaza-spiro[4.5]dec-1-en-4-one]
  cAMP production activity (%): 14%

## Cc1cc(C(=O)N2C[C@@H](C)O[C@@H](C)C2)ccc1CCS(=O)(=O)N1CCC2(CC1)N=C(c1cccc(OC(F)(F)F)c1)NC2=O [Compound 666, 8-{2-[4-((2R,6S)-2,6-dimethyl-morpholine-4-carbonyl)-2-methyl-phenyl]-ethanesulfonyl}-2-(3-trifluoromethoxy-phenyl)-1,3,8-triaza-spiro[4.5]dec-1-en-4-one]
  cAMP production activity (%): 51%

## CN(C)CCn1ccc2c(CCS(=O)(=O)N3CCC4(CC3)N=C(C3CCCCC3)NC4=O)cccc21 [Compound 313, 2-cyclohexyl-8-{2-[1-(2-dimethylamino-ethyl)-1H-indol-4-yl]-ethanesulfonyl}-1,3,8-triaza-spiro[4.5]dec-1-en-4-one]
  cAMP production activity (%): 63%

## CCCCCCCCCC1=NC2(CCN(S(=O)(=O)CCc3ccc(C(=O)N4CCCC4)cc3C)CC2)C(=O)N1 [Compound 977, 8-{2-[2-Methyl-4-(pyrrolidine-1-carbonyl)-phenyl]-ethanesulfonyl}-2-nonyl-1,3,8-triaza-spiro[4.5]dec-1-en-4-one]
  cAMP production activity (%): 80%

## Cc1cc(N(C)C(N)=O)cc(C)c1CCS(=O)(=O)N1CCC2(CC1)N=C(c1ccc(Cl)c(C(F)(F)F)c1)NC2=O [Compound 1150, 1-(4-{2-[2-(4-Chloro-3-trifluoromethyl-phenyl)-4-oxo-1,3,8-triaza-spiro[4.5]dec-1-ene-8-sulfonyl]-ethyl}-3,5-dimethyl-phenyl)-1-methyl-urea]
  cAMP production activity (%): 107%

## O=C1NC(C2CCCCC2)=NC12CCN(S(=O)(=O)CCc1cc3cc[nH]c3cc1C(F)(F)F)CC2 [Compound 836, 2-cyclohexyl-8-[2-(6-trifluoromethyl-1H-indol-5-yl)-ethanesulfonyl]-1,3,8-triaza-spiro[4.5]dec-1-en-4-one]
  cAMP production activity (%): 56%

## Cc1cc(N2C(=O)CNC2=O)cc(C)c1/C=C/S(=O)(=O)N1CCC2(CC1)N=C(C1CCC(C(C)C)CC1)NC2=O (stereo not shown) [Compound 564, 3-(4-{(E)-2-[2-(4-isopropyl-cyclohexyl)-4-oxo-1,3,8-triaza-spiro[4.5]dec-1-ene-8-sulfonyl]-vinyl}-3,5-dimethyl-phenyl)-imidazolidine-2,4-dione]
  cAMP production activity (%): 68%
